Measured values published in patent US20240335390A9, “PHARMACEUTICAL COMPOSITIONS OF AMORPHOUS SOLID DISPERSIONS AND METHODS OF PREPARATION THEREOF” (Shenzhen Pharmacin Co., Ltd., priority 2020, published 2024).
Where two headings read alike, the source gives them in different places.

Assays:
[1] = cited from earlier work
[2] = cited from earlier work; remark: listed apart in the source
[3] = Kinetic solubility of neratinib maleate ASD powders, pH 4.0 phthalic acid buffer; format: physicochemical; conditions: pH 4.0 phthalic acid buffer solution, 37 °C, pH 4, aqueous buffer, thermodynamic from solid; crystalline
AKT signaling pathway = conditions: in vitro; cited from earlier work
[4] = system: EGFR and/or HER2 expressing carcinoma cell lines; conditions: in vitro; cited from earlier work
HER2 autophosphorylation = conditions: in vitro; cited from earlier work
MAPK signaling pathway = conditions: in vitro; cited from earlier work
EGFR autophosphorylation = conditions: in vitro; cited from earlier work
[5] = second value listed in the cell

Row | Compound | Measured or Calculated pKas ([1]; first value listed in the cell) | Measured or Calculated pKas [1, 5] | also measured
1 | CC(CCc1ccccc1)NCC(O)c1ccc(O)c(C(N)=O)c1 (centres unmarked) [Labetalol] | 7.35 |  | 
2 | CN1CCN(c2c(F)cc3c(=O)c(C(=O)O)cn4c3c2OCN4C)CC1 [Marbofloxacin] | 5.69 ± 0.10 | 8.02 ± 0.20 | 
3 | C=C1c2c(Cl)ccc(O)c2C(=O)C2=C(O)[C@]3(O)C(=O)C(C(N)=O)=C(O)[C@@H](N(C)C)[C@@H]3[C@@H](O)[C@H]12 [Meclocycline] | 4.05 ± 0.30 | 6.87 ± 0.39 | 
4 | CCOc1cc2ncc(C#N)c(Nc3ccc(OCc4ccccn4)c(Cl)c3)c2cc1NC(=O)/C=C/CN(C)C.O=C(O)/C=C\C(=O)O [Neratinib maleate, (E)-N-(4-((3-chloro-4-(pyridin-2-ylmethoxy)phenyl)amino)-3-cyano-7-ethoxyquinolin-6-yl)-4-(dimethylamino)but-2-enamide maleate] |  |  | solubility ([2]; pH 1.2): 32900 µg/mL; solubility according to the product label ([2]; pH 1.2): sparingly soluble; solubility according to the product label ([2]; pH 5.0): insoluble; solubility ([2]; pH approximately 5.0): ≤ 80 µg/mL; solubility [3]: < 300 µg/mL
5 | CCOc1cc2ncc(C#N)c(Nc3ccc(OCc4ccccn4)c(Cl)c3)c2cc1NC(=O)/C=C/CN(C)C [Neratinib, neratinib] |  |  | downstream AKT signaling pathway (AKT signaling pathway): reduces; antitumor activity in carcinoma cell lines [4]: showed antitumor activity; HER2 autophosphorylation (HER2 autophosphorylation): reduces; downstream MAPK signaling pathway (MAPK signaling pathway): reduces; EGFR autophosphorylation (EGFR autophosphorylation): reduces
6 | CC1COc2c(N3CCN(C)CC3)c(F)cc3c(=O)c(C(=O)O)cn1c23 (centres unmarked) [Ofloxacin] | 6.22 ± 0.05 | 7.81 ± 0.08 | 
7 | COc1ccc2[nH]c([S+]([O-])Cc3ncc(C)c(OC)c3C)nc2c1 (centres unmarked) [Omeprazole] | 4.14 | 8.90 | 
8 | C=CCOc1ccccc1OCC(O)CNC(C)C (centres unmarked) [Oxprenolol] | 9.62 |  | 
9 | CN(C)[C@@H]1C(O)=C(C(N)=O)C(=O)[C@@]2(O)C(O)=C3C(=O)c4c(O)cccc4[C@@](C)(O)[C@H]3[C@H](O)[C@@H]12 [Oxytetracycline] | 3.04 | 8.00 | 
10 | Cc1ccc(Nc2nccc(N(C)c3ccc4c(C)n(C)nc4c3)n2)cc1S(N)(=O)=O.Cl [Pazopanib HCL] | 2.1 | 6.4 | Measured or Calculated pKas ([1]; third value listed in the cell): 10.2
11 | CCn1cc(C(=O)O)c(=O)c2cnc(N3CCNCC3)nc21 [Pipemidic acid] | 5.42 ± 0.05 | 8.18 ± 0.09 | 
12 | CC(=O)Nc1ccc(OCC(O)CNC(C)C)cc1 (centres unmarked) [Practolol] | 9.41 |  | 
13 | CCN(CC)CCOC(=O)c1ccc(N)cc1 [Procaine] | 2.28 ± 0.08 | 9.02 ± 0.01 | 
14 | CC(C)NCC(O)COc1cccc2ccccc12 (centres unmarked) [Propranolol] | 9.49 ± 0.2 |  | 
15 | CC[C@H]1OC(=O)[C@H](C)[C@@H](OC2C[C@@](C)(OC)C(O)C(C)O2)[C@H](C)[C@@H](O[C@@H]2OC(C)CC(N(C)C)C2O)[C@](C)(O)C[C@@H](C)/C(=N\OCOCCOC)[C@H](C)[C@@H](O)[C@]1(C)O (some centres unmarked) [Roxithromycin] | 9.17 ± 0.30 |  | 
16 | O=C(O)c1cn(-c2ccc(F)cc2)c2cc(N3CCNCC3)c(F)cc2c1=O [Sarafloxacin] | 5.62 ± 0.08 | 8.18 ± 0.09 | 
17 | CC(=O)NS(=O)(=O)c1ccc(N)cc1 [Sulfacetamide] | 1.95 ± 0.11 | 5.30 ± 0.05 | 
18 | Nc1ccc(S(=O)(=O)Nc2ccc(Cl)nn2)cc1 [Sulfachlorpyridazine] | 1.87 ± 0.30 | 5.45 ± 0.06 | 
19 | Nc1ccc(S(=O)(=O)Nc2ncccn2)cc1 [Sulfadiazine] | 2.10 | 6.28 | 
20 | [H]/N=C(/N)NS(=O)(=O)c1ccc(N)cc1 [Sulfaguanidine] | 1.55 | 11.24 | 
21 | Cc1ccnc(NS(=O)(=O)c2ccc(N)cc2)n1 [Sulfamerazine] | 2.17 | 6.77 | 
22 | Cc1cc(C)nc(NS(=O)(=O)c2ccc(N)cc2)n1 [Sulfamethazine] | 2.28 | 7.42 | 
23 | Cc1nnc(NS(=O)(=O)c2ccc(N)cc2)s1 [Sulfamethizole] | 1.86 ± 0.30 | 5.29 ± 0.04 | 
24 | Nc1ccc(S(=O)(=O)Nc2nccs2)cc1 [Sulfathiazole] | 2.08 | 7.07 | 
25 | CC(C)(C)NC[C@H](O)COc1nsnc1N1CCOCC1 [Timolol] | 9.34 |  | 
26 | COc1cc(Cc2cnc(N)nc2N)cc(OC)c1OC [Trimethoprim] | 3.23 ± 0.30 | 6.76 ± 0.12 | 
27 | Fenbufen | 4.56 |  | 
28 | Tylosin | 3.31 ± 0.30 | 7.50 ± 0.13 | 
